Laboratory results published in patent US11278529B2, “Methods for treating aggression associated with Alzheimer's disease” (Ovid Therapeutics Inc., priority 2014, dated 2022).

Key:
[1] = test system: GABA-uptake; conditions: cited from earlier work
[2] = test system: predisposed individuals; conditions: high peak concentrations; cited from earlier work
[3] = test system: healthy subjects; conditions: cited from earlier work
[4] = test system: APP/PS1 HET mice; experiment: Resident-Intruder (RI) test of aggression; type: in vivo
Excerpt: Behavioral aggression is a common symptom associated with Alzheimer's disease. The Resident-Intruder (RI) test is a behavioral test that can assess aggression in male mice. The two output measures are latency to attack and total number of attacks during the test. 40 Male APP/PS1 HET and 10 Male APP/PS1 WT were used as “residents”. Male C57BL/6J mice were used as intruders.
• animal age (>2 vs. >6 months for Fmr1 and APP/PS1) • housing conditions (APP/PS1 were single housed for 3 weeks ahead of testing) • lab, diet, and potentially lighting Many Other Key Variables were the Same: • route and timing of drug admin (i.p injection 30 min ahead of testing) • gender (male only) • genetic background (C57BL/6J) • 10 animals/group
Mice were screened for baseline aggression in the Resident Intruder test. Mice with attack latencies exceeding 150 seconds were excluded from the study. Mice were then balanced by latency to first attack, attack frequency, and body weight.
Gaboxadol (referred to as Test compound A) was tested at 0.5, 1, and 2 mg/kg following IP injection, 30 min pre-treat time. Mice were tested in Resident-Intruder paradigm for 5 minutes test duration.

[5] = cited from earlier work
[6] = test system: male Balb/Cbyj mice; experiment: Locomotor activity, male Balb/Cbyj mice; type: in vivo; conditions: male Balb/Cbyj mice, 1.25, 2.5 and 5 mg/Kg i.p. 30 min ahead of testing
Method: 10 male Balb/Cbyj mice were administered 0.9% NaCl, and gaboxadol: 1.25 mg/Kg, 2.5 mg/Kg and 5 mg/Kg by i.p injection 30 min ahead of testing.

[7] = test system: cerebellar granule cells; conditions: 500 nM; cited from earlier work
[8] = test system: mouse model of Angelman syndrome; conditions: cited from earlier work
[9] = test system: GABA; conditions: cited from earlier work
[10] = test system: healthy young and elderly individuals; conditions: in vivo; cited from earlier work
[11] = test system: Fmr1 knockout mice; conditions: in vivo; cited from earlier work
[12] = test system: patients with primary insomnia; conditions: cited from earlier work
[13] = test system: subjects under sleep-restriction; conditions: 15 mg, cited from earlier work
[14] = test system: male C57 mice; experiment: Locomotor activity, male C57 mice; type: in vivo; conditions: male C57 mice, 1.25, 2.5 and 5 mg/Kg i.p. 30 min ahead of testing
Method: 10 male C57 mice were administered 0.9% NaCl, and gaboxadol: 1.25 mg/Kg, 2.5 mg/Kg and 5 mg/Kg by i.p injection 30 min ahead of testing.

[15] = test system: primary insomnia subjects; conditions: cited from earlier work

Oc1noc2c1CCNC2 [gaboxadol, 4,5,6,7-tetrahydroisoxazolo(5,4-c)pyridin-3-ol]
activity as a GABA-uptake inhibitor [1]: inactive | adverse event [2]: hallucinations | TST increase compared to placebo ([3]; all dosages (5, 10, 15 mg), p<0.001): approximately 30 minutes | WASO reduction compared to placebo ([3]; all dosages (5, 10, 15 mg), p<0.05): 17 to 20 min | subjective measures of sleep quality relative to placebo ([3]; in vivo): improved | heightened aggression ([4]; Alzheimer disease model): normalizes heightened aggression | attack frequency ([4]; HET mice, 0.5, 1, and 2 mg/kg IP, 30 min pre-treat): significantly attenuated | latency to first attack ([4]; HET mice, 0.5, 1, and 2 mg/kg IP, 30 min pre-treat, compared to vehicle): significantly increased | t max ([5]; given orally, healthy subjects): 30 to 60 min | dose excreted in the urine ([5]; mostly unchanged): More than 95% | sedation (locomotor activity, total distance traveled) [6]: not sedating | excitability of cerebellar granule cells [7]: reduced | tonic holding currents [7]: increased | cerebellar dysfunction in vivo (hind paw abduction) ([8]; 1.25 mg/kg and 2.5 mg/kg): effective to rescue | adverse effects (reduced time on rotarod) ([8]; 1.25 mg/kg): without adverse effects | GABA agonist activity [9]: very potent | NREM sleep, sleep continuity, delta activity within NREM sleep, SWS/SWA [10]: increase | REM sleep [10]: without suppressing | hyperactivity (travel and velocity) [11]: reduction or dampening | hypersensitivity to auditory stimuli [11]: reduction | TST ([12]; 5 mg and 15 mg, p<0.05): significantly improved | latency to persistent sleep ([12]; 15 mg, p<0.05): significantly reduced | SWS ([12]; 15 mg): enhance | stage 1, stage 2, or REM sleep ([12]; 15 mg): without significantly affecting | WASO ([12]; statistical significance only with the 5 mg dose): improved | mean more SWS compared to placebo ([13]; over four sleep-restriction nights): 21.8 min | stage 4 sleep and SWS compared with the placebo group ([13]; p<0.001): significantly more | stage 1 sleep, REM sleep, and shifts to wake or stage 1 sleep relative to placebo [13]: small but significant reductions | sedation (locomotor activity, total distance traveled) [14]: not sedating | SWS compared with placebo ([15]; 10 mg (p<0.01) and 20 mg (p<0.001)): increase | WASO ([15]; 20 mg, p<0.01): significantly reduced | TST ([15]; 20 mg, p<0.05): significantly increased | NASO ([15]; both doses (10 and 20 mg), p<0.001): significantly reduced
